No end group written: not given here.
Key:
NgTET1 [1] = settings: cited from earlier work
ovaries of PAMH F3 mice = experiment: RT-qPCR gene expression in ovaries of SAM-treated PAMH F3 mice; assay type: in vivo, mouse
Protocol: Ovaries tissues were harvest from control F1 and PAMH F3 female mice, frozen ovaries were homogenized using 1 ml of Trizol (ThermoFisher Scientific, Cat #15596026) with a tissue homogenizer and total RNA was isolated using RNeasy Lipid Tissue Mini Kit (Qiagen; Cat #74804) following the manufacturer's instructions. For gene expression analyses, cDNA was synthetized from 1000 ng of total RNA using the High capacity RNA-to-cDNA kit (Applied Biosystems, Cat #4387406) using the manufacturer's recommended cycling conditions. Real-time PCR was carried out on Applied Biosystems 7900HT Fast Real-Time PCR system using exon-boundary-specific TaqMan® Gene Expression Assays (Applied Biosystems) (Table S4). Data were analyzed by using the 2^−ΔΔCT method (Livak and Schmittgen, 2001) and normalized to housekeeping genes Beta-actin (ActB) levels. Values are expressed relative to control values, as appropriate, set at 1.
(§1) PAMH F3 female offspring (6 months-old) were cycled for 10 days before treatment, and for additional 15 days during the treatment. CNTR female offspring (6 months-old) were not treated and were cycled for 25 days. Vaginal cytology was analyzed under an inverted microscope to record the specific stage of the estrous cycle. PAMH F3 offspring were injected intraperitoneally (i.p.) daily for 15 days with 200 μL of a solution containing 0.01M phosphate buffered saline (PBS, pH 7.4) or with SAM (50 mg/Kg/day; New England Biolegends, Cat. B9003S). This concentration was chosen based on previous in vivo pharmacological studies using the same drug (Li et al., 2012). Tail-blood samples were collected for LH and T measurements at dioestrus before the beginning of the treatments, at day 10, and at the end of the treatment, at day 25.

[2] = test system: PAMH F3 female offspring (PCOS-like mice); experiment: SAM treatment of PAMH F3 female mice: estrous cyclicity, LH, T, body composition, pancreatic islets; assay type: in vivo, mouse
Protocol: Control F1 and PAMH F1-F3 female offspring were weaned at post-natal day P21 and checked for vaginal opening (VO) and time of first estrus. Anogenital distance (AGD) and body mass (grams, g) were measured at different ages during post-natal development (P30, 35, 40, 50 and 60). At VO and in adulthood (P60), vaginal smears were performed daily for 16 consecutive days (4-cycles) for analysis of age of first estrus and estrous cyclicity. Vaginal cytology was analyzed under an inverted microscope to identify the specific stage of the estrous cycle. The reproductive competency of these animals was determined by pairing the following mice: CNTR F1 females mated with CNTR F1 males, CNTR F1 males mated with PAMH F1-F3 females, PAMH F1-F3 females mated with PAMH F1-F3 males, for a period of 3 months. Unexperienced males and primiparous females, selected from at least three different litters, were used for the 90-days mating protocol test. Number of pups/litter (number of pups), fertility index (number of litters per females over 3 months), and time to first litter (number of days to first litter after pairing) were quantified per treatment and pairing.
LH levels were determined by a sandwich ELISA, as described previously (Steyn et al., 2013), using the mouse LH-RP reference provided by A. F. Parlow (National Hormone and Pituitary Program, Torrance, CA). Plasma T levels were analyzed using a commercial ELISA (Demeditec Diagnostics, GmnH, DEV9911) (Moore et al., 2015) according to the manufacturers' instructions.
Whole body fat, fluids, and lean tissue mass were determined by Nuclear Magnetic Resonance (MiniSpec mq 7.5, RMN Analyser, Bruker) according to the manufacturer's recommendations.
as §1

NgTET1 [3] = molecular target: T1, NgTET1 (Naegleria gruberi, UniProt D2W6T1); settings: cited from earlier work
T1 sequence (D2W6T1 1-321): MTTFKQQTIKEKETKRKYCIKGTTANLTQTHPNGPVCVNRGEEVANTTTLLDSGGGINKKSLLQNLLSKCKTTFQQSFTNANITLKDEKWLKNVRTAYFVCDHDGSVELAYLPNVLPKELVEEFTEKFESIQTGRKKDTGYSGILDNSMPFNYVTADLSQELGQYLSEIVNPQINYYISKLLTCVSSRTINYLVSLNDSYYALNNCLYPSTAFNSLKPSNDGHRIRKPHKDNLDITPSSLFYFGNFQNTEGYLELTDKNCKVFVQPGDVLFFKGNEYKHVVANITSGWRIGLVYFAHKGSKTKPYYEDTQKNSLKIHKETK

[4] = molecular target: T2, TET1 catalytic domain (TET1CD) (Homo sapiens, UniProt Q8NFU7); settings: cited from earlier work
T2 sequence (Q8NFU7 1418-2136 limits assumed): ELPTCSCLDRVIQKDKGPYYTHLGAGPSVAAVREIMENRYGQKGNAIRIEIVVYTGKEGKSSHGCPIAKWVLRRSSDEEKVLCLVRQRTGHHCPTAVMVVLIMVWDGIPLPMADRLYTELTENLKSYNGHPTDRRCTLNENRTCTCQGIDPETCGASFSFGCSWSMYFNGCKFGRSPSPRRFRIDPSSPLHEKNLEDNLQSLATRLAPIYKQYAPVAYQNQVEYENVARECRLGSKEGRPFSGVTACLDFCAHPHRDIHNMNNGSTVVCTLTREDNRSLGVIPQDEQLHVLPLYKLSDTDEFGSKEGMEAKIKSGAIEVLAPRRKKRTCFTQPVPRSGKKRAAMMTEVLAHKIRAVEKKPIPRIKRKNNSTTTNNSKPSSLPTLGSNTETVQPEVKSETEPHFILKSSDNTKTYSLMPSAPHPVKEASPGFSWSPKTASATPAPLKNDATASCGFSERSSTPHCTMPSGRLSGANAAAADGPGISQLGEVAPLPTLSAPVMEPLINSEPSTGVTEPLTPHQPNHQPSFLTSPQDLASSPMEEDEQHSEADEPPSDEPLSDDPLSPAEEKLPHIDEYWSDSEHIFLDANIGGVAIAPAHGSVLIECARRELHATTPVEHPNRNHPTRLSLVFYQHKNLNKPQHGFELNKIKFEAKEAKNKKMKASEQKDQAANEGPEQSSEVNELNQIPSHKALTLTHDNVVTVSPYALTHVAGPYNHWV

mTET1 = mTET1 (Mus musculus, UniProt Q3URK3); settings: cited from earlier work
Sequence of mTET1 (Q3URK3 whole entry): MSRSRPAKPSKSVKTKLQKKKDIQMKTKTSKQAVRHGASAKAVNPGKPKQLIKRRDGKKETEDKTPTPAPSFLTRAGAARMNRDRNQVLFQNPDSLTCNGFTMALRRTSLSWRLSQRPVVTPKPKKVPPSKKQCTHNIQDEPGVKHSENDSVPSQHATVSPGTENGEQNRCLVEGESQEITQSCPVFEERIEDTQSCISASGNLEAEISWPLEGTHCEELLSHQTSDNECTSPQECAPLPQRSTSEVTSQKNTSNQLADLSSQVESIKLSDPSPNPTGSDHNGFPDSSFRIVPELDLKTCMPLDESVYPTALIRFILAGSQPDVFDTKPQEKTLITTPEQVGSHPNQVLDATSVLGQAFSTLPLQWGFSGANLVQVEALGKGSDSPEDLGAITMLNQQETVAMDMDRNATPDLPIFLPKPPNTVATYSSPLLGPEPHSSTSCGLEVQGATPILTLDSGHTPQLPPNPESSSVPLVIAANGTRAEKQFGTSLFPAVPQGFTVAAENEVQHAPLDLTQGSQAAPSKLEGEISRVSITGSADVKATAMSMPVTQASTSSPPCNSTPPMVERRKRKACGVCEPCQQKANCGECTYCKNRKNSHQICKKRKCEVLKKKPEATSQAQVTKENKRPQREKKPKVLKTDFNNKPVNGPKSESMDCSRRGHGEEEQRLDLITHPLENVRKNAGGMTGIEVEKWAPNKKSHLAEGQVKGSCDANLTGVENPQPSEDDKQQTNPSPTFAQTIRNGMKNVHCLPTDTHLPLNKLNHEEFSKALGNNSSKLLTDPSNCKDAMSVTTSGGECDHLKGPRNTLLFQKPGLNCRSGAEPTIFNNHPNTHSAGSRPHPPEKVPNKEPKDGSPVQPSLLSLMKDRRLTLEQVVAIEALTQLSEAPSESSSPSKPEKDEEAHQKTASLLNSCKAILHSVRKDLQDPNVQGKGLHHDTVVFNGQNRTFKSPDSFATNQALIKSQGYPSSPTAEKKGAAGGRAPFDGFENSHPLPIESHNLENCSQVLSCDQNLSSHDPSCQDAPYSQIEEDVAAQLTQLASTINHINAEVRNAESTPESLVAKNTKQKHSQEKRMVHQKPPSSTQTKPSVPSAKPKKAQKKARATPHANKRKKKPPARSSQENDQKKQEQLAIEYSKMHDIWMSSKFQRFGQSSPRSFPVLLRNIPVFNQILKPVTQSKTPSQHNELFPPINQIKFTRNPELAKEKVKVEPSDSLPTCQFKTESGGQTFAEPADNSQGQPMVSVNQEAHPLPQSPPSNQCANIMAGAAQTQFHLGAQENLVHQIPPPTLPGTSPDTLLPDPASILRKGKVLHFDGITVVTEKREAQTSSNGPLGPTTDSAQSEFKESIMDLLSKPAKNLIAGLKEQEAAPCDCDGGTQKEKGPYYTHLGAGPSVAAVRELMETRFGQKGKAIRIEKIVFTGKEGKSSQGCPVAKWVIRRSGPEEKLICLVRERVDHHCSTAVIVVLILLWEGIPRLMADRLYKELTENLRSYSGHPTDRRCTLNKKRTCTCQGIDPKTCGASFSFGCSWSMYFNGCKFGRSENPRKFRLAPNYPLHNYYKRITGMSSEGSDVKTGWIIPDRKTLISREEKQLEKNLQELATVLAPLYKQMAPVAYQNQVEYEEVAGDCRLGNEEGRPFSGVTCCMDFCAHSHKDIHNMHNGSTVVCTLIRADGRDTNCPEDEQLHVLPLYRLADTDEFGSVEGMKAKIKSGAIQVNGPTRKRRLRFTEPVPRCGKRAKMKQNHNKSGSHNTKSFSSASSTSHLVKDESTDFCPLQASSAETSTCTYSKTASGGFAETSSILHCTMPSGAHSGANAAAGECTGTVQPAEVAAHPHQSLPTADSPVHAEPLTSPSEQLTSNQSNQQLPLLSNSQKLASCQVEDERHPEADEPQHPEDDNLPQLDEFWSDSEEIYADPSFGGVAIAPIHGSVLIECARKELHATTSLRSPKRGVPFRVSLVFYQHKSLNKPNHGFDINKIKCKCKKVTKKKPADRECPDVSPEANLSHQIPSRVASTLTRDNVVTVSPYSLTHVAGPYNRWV

[5] = PAMH F3 females, SAM 50 mg/kg/day i.p. for 15 days
[6] = PAMH F3 females, dioestrus, day 25, SAM 50 mg/kg/day i.p. for 15 days

Compound: O=C(O)CCC(=O)C(=O)O [Molecule 3, 2-oxoglutraric acid]
- IC50 (NgTET1 [1]): 250 µM

Compound: cyclic peptide TET1 inhibitor, SEQ ID No 4: (Ac)YWYLPSYRVPWFC [Molecule 37]
- IC50 (NgTET1 [1]): 1.13 µM

Compound: C[S@@+](CC[C@H](N)C(=O)[O-])C[C@H]1O[C@@H](n2cnc3c(N)ncnc32)[C@H](O)[C@@H]1O (stereo in doubt) [SAM, S-Adenosyl methionine]
- Hdc ovarian gene expression (ovaries of PAMH F3 mice): rescue
- NF-κB mRNA in ovaries (ovaries of PAMH F3 mice): normalized
- Ptgs2 mRNA in ovaries (ovaries of PAMH F3 mice): normalized
- Sorbs2 expression in ovaries (ovaries of PAMH F3 mice): remained unaltered
- Uhrf1 expression in ovaries (ovaries of PAMH F3 mice): restored
- Tet1 transcript levels in ovarian tissues (ovaries of PAMH F3 mice; compared with controls): unaltered
- percentage of completed estrous cycles ([2]; PAMH F3 females, 6 months-old, SAM 50 mg/kg/day i.p. for 15 days): 75%
- body mass composition, % of fat mass [2, 5]: normalized
- body mass composition, % of lean mass [2, 5]: normalized
- size of the islet of Langerhans [2, 5]: normalized
- time spent in each estrous cycle stage (ovulation) [2, 5]: restored normal ovulation
- LH concentrations [2, 6]: normalized
- T concentrations [2, 6]: normalized
- major PCOS-like neuroendocrine, reproductive and metabolic traits ([2]; PAMH F3 mice, postnatal SAM treatment): rescue

Compound: cyclic peptide TET1 inhibitor, SEQ ID 5: (Ac)YYRVKTYYQITYVYLSC [Molecule 38]
- IC50 (NgTET1 [1]): 1.44 µM

Compound: O=C(O)/C=C/C(=O)N(O)CCCCCCCCNC(=S)Nc1ccc(-c2c3ccc(=O)cc-3oc3cc(O)ccc23)c(C(=O)O)c1 [Molecule 33]
- Kd (NgTET1 [3]): 0.25 µM

Compound: O=C(O)c1ccnc(C(=O)O)c1 [Molecule 35, 2,4-pyridinedicarboxylic acid]
- IC50 (NgTET1 [1]): 27 µM

Compound: cyclic peptide TET1 inhibitor, SEQ ID No 3: (Ac)YLIYAYYTWWEHSC (Ac-YLIYAYYTWWEHSC; not fully specified (bridges)) [Molecule 36]
- IC50 (NgTET1 [1]): 1.48 µM
- selectivity, inhibition of TET1CD over TET2CD [4]: tenfold

Compound: O=C(O)CNC(=O)C(=O)O [Molecule 30, N-oxalylglycine]
- IC50 (NgTET1 [1]): 49 µM

Compound: Fumarate [Molecule 32]
- IC50 (mTET1): 390 µM
